Experiments:
[1] = system: SUM-159 cells with LIPA KO; test: Live cell imaging of SUM-159 with LIPA KO; assay type: cell-based; conditions: 1 μM
Description: FIGS. 37A-J: The molecular target of ERX-41 in TNBC is LIPA. […] (FIG. 37B) Knockout clones of LIPA, ACACA, TMEM208, SOAT1 and ARID1A were generated in MDA-MB-231 cells and evaluated for response to ERX-41 using doseresponse curves using CellTiter-Glo assays in vitro. (FIGS. 37C-D) Effect of knockout of LIPA in SUM-159 (FIG. 37C) and MDA-MB436 (FIG. 37D) on dose response curve to ERX-41 using CellTiter-Glo assays in vitro. (FIGS. 37E-F) Dose response curves of SUM-159 parental cells and clones with LIPA KO to thapsigargin (FIG. 37E) and paclitaxel (FIG. 37F). (FIGS. 37G-H) Live cell imaging studies with SYTOX Green to examine ability of 1 μM ERX-41 to induce cell death in parental SUM-159 and SUM-159 clones with LIPA KO, with quantitation (FIG. 37G) and time-lapsed photomicrographs at 0 h and 30 h ((FIG. 37H). (FIGS. 37I-J) SCID mice were implanted with either parental SUM-159 or SUM-159 clones with LIPA KO (n=6, each group) and tumors were allowed to establish (150 mm^3). Following daily intraperitoneal administration of 10 mg/kg ERX-41, tumor sizes were measured and graphed (FIG. 37I), along with mice body weights (FIG. 37J). *p<0.05. **p<0.01; ***p<0.001.
The molecular target of ERX-41 in TNBC is LIPA. […] Knockout clones of LIPA, SLC5A3, SMAP2, TMEM208, SOAT1 and ARID1A were generated in multiple TNBC cells and evaluated for response to ERX-41.

LIPA = target: T1, LIPA (Homo sapiens, UniProt P38571); test: Biotinylated ERX-41 pulldown; assay type: binding; conditions: WT-LIPA and H274Y MT-LIPA, not DLXXLL or L242P MT-LIPA
T1 construct: expressed in transfected cells; host or cells: SUM-159 cells with LIPA KO, reconstituted with LIPA plasmid constructs
T1 sequence (P38571 22-399): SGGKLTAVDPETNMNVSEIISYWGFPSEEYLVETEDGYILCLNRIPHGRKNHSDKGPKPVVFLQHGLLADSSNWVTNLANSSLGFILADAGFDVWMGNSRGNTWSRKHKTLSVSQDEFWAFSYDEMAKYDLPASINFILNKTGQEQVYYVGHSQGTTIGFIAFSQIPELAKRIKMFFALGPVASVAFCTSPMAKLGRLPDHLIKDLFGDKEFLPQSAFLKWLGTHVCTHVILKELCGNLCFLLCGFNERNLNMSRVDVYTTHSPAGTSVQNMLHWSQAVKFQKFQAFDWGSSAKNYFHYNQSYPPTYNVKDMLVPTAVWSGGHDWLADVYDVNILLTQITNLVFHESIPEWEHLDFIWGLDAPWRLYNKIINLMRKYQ
Description: (§1) FIGS. 39A-N: (FIGS. 39A-E) Predicted binding mode of ERX-41 (colored in green) on the human lysosomal acid lipase (LAL, PDB code: 6V7N, LXXLL (SEQ ID NO: 1) domain colored in orange). (FIG. 39F) PDB structure of LAL protein showing relative positions of the catalytic domain (with H274Y MT) and the LXXLL (SEQ ID NO: 1) domain (L242P MT). (FIG. 39G) Evaluation of the effect of ERX-41 and lalistat (known lipase inhibitor) on lipase activity of parental SUM-159 (WT) and SUM-159 cells with LIPA KO. (FIG. 39H) Evaluation of basal lipase activity in parental SUM-159 (WT), SUM-159 cells with LIPA KO (KO), SUM-159 cells with LIPA KO and with reconstitution of either WT LIPA (KO+WT), H274Y MT-LIPA (KO+H274Y), DLXXLL (SEQ ID NO: 2) MT-LIPA (KO+DLXXLL (SEQ ID NO: 2)) or L242P MT-LIPA (KO+L242P). Protein expression of LAL and control vinculin in these cells are shown below (FIG. 391) Cellular lysates from described SUM-159 cells were incubated with biotinylated ERX-11 or biotinylated ERX-41 and then subject to a streptavidin column. Elutants were then evaluated for LIPA pulldown by western blotting. (FIG. 39J) Dose response curve to increasing concentrations of ERX-41 in described SUM-159 cells. (FIGS. 39K-M) Effect of vehicle or 1 μM ERX-41 on induction of UPR genes at the protein level (FIG. 39K) or RNA level (FIGS. 39L-M). […]

lipase activity of LIPA = target: T2, lipase activity of LIPA (Homo sapiens, UniProt P38571); test: Lipase activity assay; assay type: biochemical; conditions: SUM-159 cells
T2 construct: lipase activity of parental SUM-159 (WT) and SUM-159 cells with LIPA KO; endogenous in cells; host or cells: SUM-159 (parental)
T2 sequence (P38571 77-399): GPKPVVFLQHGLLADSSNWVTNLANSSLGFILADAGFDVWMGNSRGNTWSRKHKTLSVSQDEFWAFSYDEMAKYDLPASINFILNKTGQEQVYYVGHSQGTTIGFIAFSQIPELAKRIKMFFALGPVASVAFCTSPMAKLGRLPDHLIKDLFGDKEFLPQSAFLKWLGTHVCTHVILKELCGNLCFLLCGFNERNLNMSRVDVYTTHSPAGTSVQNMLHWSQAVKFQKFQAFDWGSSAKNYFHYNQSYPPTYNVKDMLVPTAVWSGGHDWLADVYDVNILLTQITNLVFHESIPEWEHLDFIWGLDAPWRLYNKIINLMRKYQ
Description: as §1

SMILES: CC(C)COc1cc(C(=O)Nc2ccc(C(=O)N[C@H]3CC[C@H](C)CC3)cc2OCC(C)C)ccc1NC(=O)c1ccc([N+](=O)[O-])c(OCCO)c1 [TK41]
- cell death after KO of LIPA [1]: dramatic decrease in cell death
- interaction with LIPA (LIPA): direct interaction
- effect on lipase activity of LIPA (lipase activity of LIPA): no inhibition of lipase activity

From US12275685B2, “Oligo-benzamide analogs and their use in cancer treatment” (Board of Regents, The University of Texas System, priority 2018, dated 2025)
